| melting point [°C] | Structure (SMILES) |
| --- | --- |
| 215 to 216 | CCCN(Nc1cccc(C(=N)N)c1)C(=O)Nc1ccc(-c2ccccc2S(N)(=O)=O)cc1 [Compound 1, 4′-[3-(3-amidinophenyl)-2-propylcarbazoylamino]biphenyl-2-sulfonamide] |
| > 300 | CCCN(Nc1cccc(C(=N)N)c1)C(=O)NNc1ccc(-c2ccccc2S(C)(=O)=O)cc1 [Compound 15, 1-(3-amidinophenyl)-4-(2′-methylsulfonylbiphenyl-4-ylamino)-2-propylsemicarbazide] |

From patent US6849626B2, “Aza-amino acid derivatives (factor Xa inhibitors 15)” (Merck Patent GmbH, priority 2000, dated 2005)
